Measurements published in ChEMBL document CHEMBL1201862, “PubChem BioAssay data set” (2004).
Activity calls are given as the source filed them.

Experiments:
[1] = test system: Escherichia coli; assay: microbe, parasite or virus in culture
[2] = target: Phospholipase D2 (Homo sapiens, UniProt O14939); assay: cellular phospholipase D2 inhibition IC50 – cell-based, dose response (AID 602147); assay type: functional;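 further: cellular assay in HEK293 cells overexpressing GFP-tagged PLD2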
[3] = target: Phospholipase D1 (Homo sapiens, UniProt Q13393); assay: cellular phospholipase D1 inhibition IC50 – cell-based, dose response (AID 602151); assay type: functional;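 further: cellular PLD1 assay in Calu-1 cells stimulated with PMA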
[4] = target: Hexokinase-1 (Homo sapiens, UniProt P19367); assay: hexokinase 1 activity inhibitors, potency – biochemical, set 2, resazurin fluorescence coupled readout, selectivity assay for HKDC1 inhibitor project, SAR follow-up (AID 588356); assay type: functional
[5] = target: T1, Hexokinase HKDC1 (Homo sapiens, UniProt Q2TB90); assay: analog inhibition of human HKDC1 activity – biochemical, set 2, SAR follow-up (AID 588355); assay type: functional
T1 sequence (Q2TB90 whole entry): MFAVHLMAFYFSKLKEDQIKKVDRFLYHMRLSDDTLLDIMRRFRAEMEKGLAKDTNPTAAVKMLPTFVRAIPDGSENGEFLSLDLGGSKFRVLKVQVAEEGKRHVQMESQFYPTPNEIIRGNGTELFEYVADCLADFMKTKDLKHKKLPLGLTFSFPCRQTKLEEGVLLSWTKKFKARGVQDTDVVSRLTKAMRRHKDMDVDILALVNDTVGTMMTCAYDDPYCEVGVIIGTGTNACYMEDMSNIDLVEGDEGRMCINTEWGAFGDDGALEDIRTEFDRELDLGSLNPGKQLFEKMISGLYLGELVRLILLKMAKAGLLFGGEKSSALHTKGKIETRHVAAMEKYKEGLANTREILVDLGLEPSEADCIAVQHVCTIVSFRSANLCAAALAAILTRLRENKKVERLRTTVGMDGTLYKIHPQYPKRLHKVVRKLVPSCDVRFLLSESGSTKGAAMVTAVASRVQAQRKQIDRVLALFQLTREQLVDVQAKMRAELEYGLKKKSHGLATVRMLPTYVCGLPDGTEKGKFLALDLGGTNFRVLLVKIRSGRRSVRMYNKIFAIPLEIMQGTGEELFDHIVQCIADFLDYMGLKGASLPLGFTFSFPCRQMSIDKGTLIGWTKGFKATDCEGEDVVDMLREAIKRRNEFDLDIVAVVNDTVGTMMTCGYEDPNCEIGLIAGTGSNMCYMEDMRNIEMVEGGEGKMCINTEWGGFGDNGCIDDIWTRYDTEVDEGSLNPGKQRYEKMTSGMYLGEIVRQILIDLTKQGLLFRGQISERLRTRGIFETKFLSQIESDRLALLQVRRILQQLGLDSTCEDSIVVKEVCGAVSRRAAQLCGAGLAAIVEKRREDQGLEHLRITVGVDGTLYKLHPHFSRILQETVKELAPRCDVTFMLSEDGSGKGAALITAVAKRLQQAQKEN

[6] = target: Type-1 angiotensin II receptor (Homo sapiens, UniProt P30556); assay: antagonism of angiotensin II type 1 receptor – cell-based, uHTS hits, selectivity assay for APJ receptor antagonist project, dose response (AID 463214); assay type: functional;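 further: antagonist potency against angiotensin II stimulated AT1 response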
[7] = target: Mitochondrial peptide methionine sulfoxide reductase (Bos taurus, UniProt P54149); assay: Absorbance-based biochemical high throughput dose response assay for activators of Methionine sulfoxide reductase A (MsrA).; assay type: functional
[8] = target: Beta-galactosidase (Escherichia coli, UniProt Q8VNN2); assay: PubChem AID 485352; assay type: functional
[9] = test system: Candida albicans; assay: C. albicans growth inhibition with fluconazole – CaCi-2 strain, Alamar Blue, dry powder, set 4, dose response (AID 488943); assay type: functional, organism-based
[10] = test system: Candida albicans; assay: resistant Candida growth with fluconazole co-treatment – CaCi-8 strain, Alamar Blue, dry powder, set 3, dose response (AID 488905); assay type: functional, organism-based
[11] = test system: Candida albicans; assay: Candida growth inhibition combined with fluconazole – CaCi-2 strain, Alamar Blue, dry powder, set 3, dose response (AID 488907); assay type: functional, organism-based
[12] = test system: Candida albicans; assay: fluconazole-resistant Candida strain growth inhibitors – CaCi-8 strain, dry powder, set 4, dose response (AID 488950); assay type: functional, organism-based
[13] = Luminescence Cell-Based Dose Response HTS to Identify Inhibitors of 5'UTR Stem-Loop Driven Prion Protein mRNA Translation in H4 Neuroglioblastoma Cells. [Related pubchem assays: 1827 (Project Summary), 1813 (Primary HTS)]; assay type: functional
[14] = test system: Escherichia coli; assay: microbe, parasite or virus in culture; remark: listed apart in the source
[15] = luciferase reporter signal suppression in cells – H4 neuroglioma cells, luminescence, dose response (AID 1990); assay type: functional, cell-based
[16] = alpha-synuclein stem-loop luciferase translation blockers – H4 neuroglioma cells, luminescence, confirmation (AID 1988); assay type: functional, cell-based
[17] = Trypanosoma cruzi growth suppression in host cells – NIH3T3 host cells, beta-gal luminescence, confirmation (AID 2044); assay type: functional, cell-based;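 further: intracellular parasites grown in NIH/3T3 mouse fibroblasts as host cells; luminescent beta-galactosidase reporter signal from transgenic T. cruzi replicating inside host cells; inhibitors lower the luminescence signal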
[18] = NIH3T3 cell viability loss – ATP luminescence, mouse fibroblasts, counter-screen, dose response (AID 2010); assay type: functional, cell-based;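 further: cells exposed to compound for about 90 hours before reading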
[19] = test system: HEK293; assay: EBV LMP1 TES2 canonical NF-kB signalling blockers – cell-based, HEK293, luciferase, cherry-pick, dose response (AID 588343); assay type: functional; conditions: Homo sapiens
[20] = target: T2, Streptokinase A (Streptococcus pyogenes serotype M1, UniProt P10520); assay: viability-normalized secreted streptokinase activity reduction – plasminogen activation absorbance, OD405, dose response (AID 1914); assay type: functional, Streptococcus pyogenes M1 GAS;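 further: secreted streptokinase activity via plasminogen activation per viability signal from cell pellet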
T2 sequence (P10520 whole entry): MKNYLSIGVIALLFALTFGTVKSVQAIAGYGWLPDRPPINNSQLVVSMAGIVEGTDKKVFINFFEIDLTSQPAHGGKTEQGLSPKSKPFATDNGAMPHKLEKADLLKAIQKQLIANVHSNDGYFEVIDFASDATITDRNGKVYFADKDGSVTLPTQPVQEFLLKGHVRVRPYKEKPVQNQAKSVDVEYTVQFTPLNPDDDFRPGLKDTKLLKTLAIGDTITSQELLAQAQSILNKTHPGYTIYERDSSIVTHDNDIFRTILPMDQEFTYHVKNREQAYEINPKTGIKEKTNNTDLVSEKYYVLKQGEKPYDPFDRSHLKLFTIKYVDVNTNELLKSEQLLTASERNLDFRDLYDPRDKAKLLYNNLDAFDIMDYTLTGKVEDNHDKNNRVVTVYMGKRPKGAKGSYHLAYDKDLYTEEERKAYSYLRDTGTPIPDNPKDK

[21] = test system: INS1; assay: INS-1E survival protection against cytokine death – cell-based, luminescence, retest, dose response (AID 449756); assay type: functional; conditions: Rattus norvegicus;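 further: cell death triggered by IL-1 beta plus TNF-alpha plus IFN-gamma mixture; protective hits raise ATP signal compared with cytokine alone wells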
[22] = test system: Streptococcus sp. 'group A'; assay: Streptococcus pyogenes SK(-)GAS viability under kanamycin – luminescence, BacTiterGlo, confirmation, counter-screen for streptokinase expression inhibitor project, dose response (AID 1900); assay type: functional, organism-based
[23] = target: Latent membrane protein 1 (Human herpesvirus 4 (strain B95-8), UniProt P03230); assay: LMP1 TES1 pathway selectivity over dsRED control – imaging, HEK293T, dual-color eGFP/dsRED, cherry-picks, selectivity assay for LMP1 NF-kB inhibitor project, dose response (AID 588398); assay type: functional, cell-based
[24] = test system: Streptococcus; assay: GAS UMAA2166 growth inhibition – luminescence, BacTiterGlo, counter-screen for streptokinase expression inhibitor project, dose response (AID 1915); assay type: functional, organism-based;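 further: potency for reduction of bacterial viability or growth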

Phospholipase D2, sequence (O14939 whole entry): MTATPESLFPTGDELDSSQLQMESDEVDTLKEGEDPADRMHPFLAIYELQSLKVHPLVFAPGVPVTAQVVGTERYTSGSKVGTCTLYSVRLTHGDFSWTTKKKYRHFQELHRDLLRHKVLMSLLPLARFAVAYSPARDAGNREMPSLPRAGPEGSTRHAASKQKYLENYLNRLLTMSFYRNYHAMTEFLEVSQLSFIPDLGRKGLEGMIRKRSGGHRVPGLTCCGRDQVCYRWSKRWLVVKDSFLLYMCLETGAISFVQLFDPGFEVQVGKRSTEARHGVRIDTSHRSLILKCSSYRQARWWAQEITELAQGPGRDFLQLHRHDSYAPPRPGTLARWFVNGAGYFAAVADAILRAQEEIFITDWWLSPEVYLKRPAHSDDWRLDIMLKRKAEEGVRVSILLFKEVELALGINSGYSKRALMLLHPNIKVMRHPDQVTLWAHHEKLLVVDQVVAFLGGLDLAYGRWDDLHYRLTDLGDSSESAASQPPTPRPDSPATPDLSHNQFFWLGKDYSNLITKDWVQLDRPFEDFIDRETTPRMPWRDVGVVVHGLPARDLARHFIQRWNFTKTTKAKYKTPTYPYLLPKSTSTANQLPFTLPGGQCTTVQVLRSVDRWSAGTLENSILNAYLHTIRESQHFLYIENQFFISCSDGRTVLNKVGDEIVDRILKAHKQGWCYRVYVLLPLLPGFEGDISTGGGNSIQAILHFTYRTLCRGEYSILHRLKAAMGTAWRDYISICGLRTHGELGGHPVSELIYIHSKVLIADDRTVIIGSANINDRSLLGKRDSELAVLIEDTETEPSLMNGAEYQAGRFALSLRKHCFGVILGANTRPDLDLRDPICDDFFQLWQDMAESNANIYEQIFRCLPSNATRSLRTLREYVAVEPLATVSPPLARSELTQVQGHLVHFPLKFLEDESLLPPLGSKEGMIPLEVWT
Latent membrane protein 1, sequence (P03230 whole entry): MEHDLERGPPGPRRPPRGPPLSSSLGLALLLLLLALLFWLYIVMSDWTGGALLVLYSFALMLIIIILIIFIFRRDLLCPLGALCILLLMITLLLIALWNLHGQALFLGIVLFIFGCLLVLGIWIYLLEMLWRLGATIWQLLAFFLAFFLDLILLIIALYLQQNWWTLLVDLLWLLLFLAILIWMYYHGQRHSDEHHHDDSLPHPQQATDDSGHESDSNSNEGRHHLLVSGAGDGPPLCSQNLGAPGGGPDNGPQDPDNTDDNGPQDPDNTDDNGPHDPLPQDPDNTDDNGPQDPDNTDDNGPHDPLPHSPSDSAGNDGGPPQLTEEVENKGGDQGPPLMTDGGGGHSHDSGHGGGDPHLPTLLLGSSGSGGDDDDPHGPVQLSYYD
Type-1 angiotensin II receptor, sequence (P30556 whole entry): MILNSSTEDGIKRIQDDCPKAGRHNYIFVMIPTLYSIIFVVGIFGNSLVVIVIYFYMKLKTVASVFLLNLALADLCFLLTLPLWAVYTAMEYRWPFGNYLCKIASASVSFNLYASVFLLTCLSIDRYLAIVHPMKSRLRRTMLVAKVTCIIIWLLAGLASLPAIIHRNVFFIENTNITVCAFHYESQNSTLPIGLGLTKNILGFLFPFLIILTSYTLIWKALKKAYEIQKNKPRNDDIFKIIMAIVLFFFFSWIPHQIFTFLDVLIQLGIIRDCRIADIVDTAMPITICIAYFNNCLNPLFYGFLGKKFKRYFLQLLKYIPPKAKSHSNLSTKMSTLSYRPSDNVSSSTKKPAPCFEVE
Beta-galactosidase, sequence (Q8VNN2 whole entry): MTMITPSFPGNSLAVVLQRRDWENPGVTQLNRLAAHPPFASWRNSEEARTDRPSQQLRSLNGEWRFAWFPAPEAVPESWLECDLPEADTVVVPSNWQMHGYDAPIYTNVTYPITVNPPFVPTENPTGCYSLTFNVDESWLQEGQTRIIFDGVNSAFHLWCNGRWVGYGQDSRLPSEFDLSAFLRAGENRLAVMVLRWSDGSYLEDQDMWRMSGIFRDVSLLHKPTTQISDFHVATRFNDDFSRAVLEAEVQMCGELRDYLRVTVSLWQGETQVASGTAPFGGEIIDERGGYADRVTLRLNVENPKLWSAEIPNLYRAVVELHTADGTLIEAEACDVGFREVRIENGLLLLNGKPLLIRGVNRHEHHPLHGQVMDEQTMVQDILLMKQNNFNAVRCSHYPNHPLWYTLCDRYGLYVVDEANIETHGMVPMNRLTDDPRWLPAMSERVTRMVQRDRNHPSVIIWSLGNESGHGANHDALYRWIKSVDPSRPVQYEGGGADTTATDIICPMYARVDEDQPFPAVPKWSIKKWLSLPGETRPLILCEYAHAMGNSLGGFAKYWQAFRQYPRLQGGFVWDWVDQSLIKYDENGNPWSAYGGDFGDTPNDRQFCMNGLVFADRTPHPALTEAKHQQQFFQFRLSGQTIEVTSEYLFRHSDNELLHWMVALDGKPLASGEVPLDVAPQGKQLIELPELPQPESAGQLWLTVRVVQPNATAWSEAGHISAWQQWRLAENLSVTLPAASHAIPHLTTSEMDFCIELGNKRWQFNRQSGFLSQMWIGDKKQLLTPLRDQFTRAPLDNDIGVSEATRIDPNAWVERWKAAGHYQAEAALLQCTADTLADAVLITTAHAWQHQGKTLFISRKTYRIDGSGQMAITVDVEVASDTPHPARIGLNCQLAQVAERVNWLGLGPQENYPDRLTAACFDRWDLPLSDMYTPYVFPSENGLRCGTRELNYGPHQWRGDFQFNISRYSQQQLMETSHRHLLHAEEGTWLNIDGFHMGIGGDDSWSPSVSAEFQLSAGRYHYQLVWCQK
Mitochondrial peptide methionine sulfoxide reductase, sequence (P54149 whole entry): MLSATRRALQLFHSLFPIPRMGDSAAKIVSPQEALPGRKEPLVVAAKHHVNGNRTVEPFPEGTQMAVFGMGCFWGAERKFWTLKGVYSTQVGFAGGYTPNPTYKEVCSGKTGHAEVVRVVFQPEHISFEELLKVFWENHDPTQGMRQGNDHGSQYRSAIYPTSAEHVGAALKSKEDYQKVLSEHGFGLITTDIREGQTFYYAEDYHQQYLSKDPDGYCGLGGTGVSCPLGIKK
Hexokinase-1, sequence (P19367 whole entry): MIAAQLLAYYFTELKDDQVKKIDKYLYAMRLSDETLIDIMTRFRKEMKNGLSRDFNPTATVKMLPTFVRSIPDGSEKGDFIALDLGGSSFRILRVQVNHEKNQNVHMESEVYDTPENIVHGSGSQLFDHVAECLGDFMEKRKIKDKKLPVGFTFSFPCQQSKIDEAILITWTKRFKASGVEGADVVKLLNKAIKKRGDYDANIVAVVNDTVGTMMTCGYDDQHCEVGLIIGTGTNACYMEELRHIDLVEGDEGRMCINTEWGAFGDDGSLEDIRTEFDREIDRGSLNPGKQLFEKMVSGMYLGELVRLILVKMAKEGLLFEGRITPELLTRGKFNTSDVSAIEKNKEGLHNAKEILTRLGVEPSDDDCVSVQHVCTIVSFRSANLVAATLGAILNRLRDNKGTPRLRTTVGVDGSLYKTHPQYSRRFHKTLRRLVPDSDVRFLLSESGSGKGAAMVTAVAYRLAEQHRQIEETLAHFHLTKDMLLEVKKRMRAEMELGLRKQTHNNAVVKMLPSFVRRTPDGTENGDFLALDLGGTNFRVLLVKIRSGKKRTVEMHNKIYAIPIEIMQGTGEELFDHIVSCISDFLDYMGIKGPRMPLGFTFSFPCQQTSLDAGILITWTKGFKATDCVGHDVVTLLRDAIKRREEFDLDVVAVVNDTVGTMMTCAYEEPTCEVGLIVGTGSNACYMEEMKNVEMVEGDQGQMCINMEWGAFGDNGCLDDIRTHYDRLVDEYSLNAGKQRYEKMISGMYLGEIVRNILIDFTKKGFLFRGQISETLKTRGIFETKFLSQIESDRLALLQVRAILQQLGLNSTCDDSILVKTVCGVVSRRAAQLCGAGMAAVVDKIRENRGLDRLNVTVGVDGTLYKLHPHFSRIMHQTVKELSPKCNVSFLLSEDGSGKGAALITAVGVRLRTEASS
Phospholipase D1, sequence (Q13393 whole entry): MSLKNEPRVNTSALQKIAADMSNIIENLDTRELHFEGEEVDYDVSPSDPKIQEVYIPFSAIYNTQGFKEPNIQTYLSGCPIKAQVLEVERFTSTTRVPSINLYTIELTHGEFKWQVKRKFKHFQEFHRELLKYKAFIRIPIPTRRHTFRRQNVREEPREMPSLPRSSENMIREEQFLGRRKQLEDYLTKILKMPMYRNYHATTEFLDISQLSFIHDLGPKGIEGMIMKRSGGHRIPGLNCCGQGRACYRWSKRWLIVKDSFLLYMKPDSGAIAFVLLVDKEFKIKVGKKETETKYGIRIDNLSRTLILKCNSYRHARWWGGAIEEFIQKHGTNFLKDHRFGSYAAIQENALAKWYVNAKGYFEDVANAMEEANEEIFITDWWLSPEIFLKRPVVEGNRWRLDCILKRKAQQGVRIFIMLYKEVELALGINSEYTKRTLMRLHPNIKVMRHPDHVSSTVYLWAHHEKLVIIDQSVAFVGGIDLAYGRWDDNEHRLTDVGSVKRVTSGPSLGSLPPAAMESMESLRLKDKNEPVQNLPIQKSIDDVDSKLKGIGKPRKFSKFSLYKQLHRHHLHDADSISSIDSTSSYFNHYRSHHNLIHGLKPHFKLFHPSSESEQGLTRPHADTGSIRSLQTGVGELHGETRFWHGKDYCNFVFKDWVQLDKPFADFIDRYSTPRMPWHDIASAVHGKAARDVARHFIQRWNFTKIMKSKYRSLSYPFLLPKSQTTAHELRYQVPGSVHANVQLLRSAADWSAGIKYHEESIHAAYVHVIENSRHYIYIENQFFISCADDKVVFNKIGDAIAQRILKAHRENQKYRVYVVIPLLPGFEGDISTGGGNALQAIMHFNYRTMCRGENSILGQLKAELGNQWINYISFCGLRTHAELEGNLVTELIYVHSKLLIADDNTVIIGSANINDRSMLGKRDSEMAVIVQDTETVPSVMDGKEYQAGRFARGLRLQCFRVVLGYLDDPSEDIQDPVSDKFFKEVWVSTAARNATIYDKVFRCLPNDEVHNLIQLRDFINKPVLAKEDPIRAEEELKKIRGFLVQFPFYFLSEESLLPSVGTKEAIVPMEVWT

Cc1nnc(SCc2ccccc2CSc2nnc(C)s2)s1
AC50 [1]: 111 µM (active)

C[C@@H](CN1CCC2(CC1)C(=O)NCN2c1ccc(F)c(F)c1)NC(=O)c1ccc(F)cc1
IC50 [2]: 0.26 µM (active)
IC50 [3]: 0.104 µM (active)

COc1ccc2c(c1)C(NC(C)=O)C(=O)N2Cc1ccccc1 (centres undefined)
IC50 [4]: > 80 µM (inactive)
IC50 [5]: > 80 µM (inactive)

O=C1c2ccccc2-c2nnc(-c3ccccc3)cc21
IC50 [6]: 7.43 µM (active)
EC50 [7]: > 104 µM (inactive)
EC50 [8]: > 40 µM (inactive)

Cc1ccc(N2CCN(C(=O)c3ccc(Cl)cc3)CC2)nn1
AC50 [9]: 1.64 µM (active)
AC50 [10]: 103 µM (active)
AC50 [11]: 8.19 µM (active)
AC50 [12]: 4.41 µM (active)

O=C(O)CCCc1nc(-c2ccc(Cl)cc2)no1
EC50 [13]: 23.1 µM (active)
AC50 [14]: 39 µM (active)
EC50 [15]: 27.1 µM (active)
EC50 [16]: 16.2 µM (active)

CCCc1sc(N/N=C/c2ccccn2)nc1-c1ccc(Br)cc1
EC50 [17]: 0.202 µM (active)
EC50 [18]: 2.38 µM (active)
AC50 [19]: 22.3 µM (active)
EC50 [20]: > 150 µM (not active)
AC50 [21]: 8.41 µM (active)
EC50 [22]: 0.442 µM (active)
AC50 [23]: 32.3 µM (active)
EC50 [24]: 8.45 µM (active)
